The subject of the test is LPS-induced acute lung inflammation. Nature of the test: Mouse acute lung inflammatory (ALI) model, LPS-induced. The class given is in vivo. To be noted: TPCA-1 0.33 mg/kg i.v. The protocol: Mouse acute lung inflammatory (ALI) model: CD1 male mice were utilized. ALI was induced by intracheal spray of LPS (10 mg/kg) using a Model ICA-IC-M MicroSprayer Aerosolizer (Pen-Century). Approximately 3 hours after LPS was challenged, mice were intravenously injected with HBSS, free drug (TPCA-1), TPCA-1 loaded erythrocyte vesicles and TPCA-1 loaded HL 60 vesicles at two doses of 0.33 and 1 mg/ kg.
Bronchoalveolar lavage fluid collection and cell count: At 13 hours post-LPS administration, mice were anesthetized with an i.p. injection of ketamine and xylazine mixture. The trachea was cannulated, and 1 ml HBSS was infused intratracheally and withdrawn to obtain lavage fluid. This procedure was repeated twice. […] The total cell number was determined with a hemocytometer. […] The percentages of neutrophils were determined after counting 200 cells in randomly selected fields.
Cytokine generation: Cytokine levels in the BAL were determined using commercial ELISA kits for TNF-α and IL-6 (Biolegend, San Diego, Calif.) according to the manufacturer's instructions. […]
Measurement of lung vascular permeability: The permeability was evaluated via the larvage protein content change. The total protein concentrations were determined using a BCA protein assay kit (Thermo scientific, Rockford, Ill.).

For `NC(=O)Nc1sc(-c2ccc(F)cc2)cc1C(N)=O` [TPCA-1, 2-[(Aminocarbonyl)amino]-5-(4-fluorophenyl)-3-thiophenecarboxamide], the “therapeutic benefit on neutrophil infiltration at low dose” value was “rarely showed this benefit”.

The values above are taken from patent US20180177725A1, “CELL MEMBRANE-FORMED NANOSCALE VESICLES AND METHODS OF USING THEREOF” (WASHINGTON STATE UNIVERSITY, priority 2015, published 2018).
